These are literature values, as cited in patent US20110224196A1, “TREATMENT OF O[…] APNEA SYNDROME WITH A COMBINATION OF A CARBONIC ANHYDRASE INHIBITOR AND AN […] AGENT” (Vivus, Inc., priority 2010, published 2011).

As to `NC(=O)C[S+]([O-])C(c1ccccc1)c1ccccc1` (stereo not shown) [Modafinil, 2-[(diphenylmethy)sulfinyl]-N-acetamide], the solubility in acetone entry (acetone) is given as “sparingly or slightly soluble”. Further, the solubility in cyclohexane entry (cyclohexane) is “insoluble”. In addition, the solubility in methanol result (methanol) is on record as “sparingly or slightly soluble”. For the same compound, where the note is “water”, the solubility in water result was “insoluble”.
